We go through eleven molecules from ChEMBL document CHEMBL1201862, “PubChem BioAssay data set” (2004).

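Dose response: 5 concentrations. Exposure: 48 h. Format: 96-well plates. Endpoint: linear interpolation; highest concentration if not reached. GI50 marks 50% less growth.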 Active and inactive are the calls of the source. No stated cut-off is given here; in the data, active = GI50 up to about 1.1 µM and inactive = higher.

Assay in all cases: inhibition of tumour cell growth, NCI panel, 48 h
Experiment [1] deals with NCI/ADR-RES.
For experiment [2], the system named is MDA-MB-231.
Experiment [3] concerns A549.
In experiment [4] the test system is SNB-75.
The test system of experiment [5] is TK-10.
The subject of experiment [6] is SF-295.
Experiment [7] has as its system M14.
The test system of experiment [8] is SF-268.
The test system of experiment [9] is CCRF-CEM.
The subject of experiment [10] is Hs-578T.
For experiment [11], the system named is EKVX.
For experiment [12], the system named is HOP-62.
Experiment [13] relates to UO-31.
For experiment [14], the system named is MCF7.
Experiment [15] relates to LOX IMVI.
The test system of experiment [16] is SN12C.
For experiment [17], the system named is SR.
Experiment [18] concerns OVCAR-4.
In experiment [19] the test system is MDA-MB-435.
Experiment [20] relates to BT-549.

For the molecule `COC(=O)c1cc2c(cc1O)[C@@H](NC(C)=O)CCc1cc(OC)c(OC)c(OC)c1-2`, the GI50 in [1] is 0.114 µM (active); in experiment [2] it was 0.0923 µM (active); in experiment [3], 0.0605 µM (active); in experiment [4], 0.0299 µM (active); in experiment [5], > 10 µM (inactive); in experiment [6], 0.0385 µM (active). The GI50 was 0.0454 µM (active) in experiment [7]; 0.0792 µM (active) in experiment [8]; 0.0492 µM (active) in experiment [9]; 0.017 µM (active) in experiment [10]; 0.0415 µM (active) in experiment [11]; 0.0946 µM (active) in experiment [12]. The GI50 in [13] was 0.445 µM (active); in [14], < 0.01 µM (active); in experiment [15] it was 0.0501 µM (active); in experiment [16], 0.127 µM (active); in experiment [17], 0.055 µM (active); in experiment [18], 0.0432 µM (active). The GI50 in [19] was 0.0262 µM (active).
`Cc1nc2c(sc3nc4c(cc32)CCC4)c(=O)o1`: the GI50 was > 56.1 µM (inactive) in [1]; > 92.5 µM (inactive) in experiment [2]; > 50.5 µM (inactive) in [3]; > 68.4 µM (inactive) in experiment [4]; > 64.6 µM (inactive) in experiment [5]; > 100 µM (inactive) in [6]. For the same molecule, the GI50 in experiment [7] was 64.3 µM (inactive); in experiment [8] it was 49.7 µM (inactive); in experiment [9], 40.8 µM (inactive); in [10], 45.9 µM (inactive); in [11], > 100 µM (inactive); in experiment [12], > 100 µM (inactive). The GI50 in experiment [13] was > 56.1 µM (inactive); in experiment [14] it was > 81.3 µM (inactive); in experiment [15], 41.4 µM (inactive); in experiment [16], 98.2 µM (inactive); in experiment [17], 39.3 µM (inactive); in [18] it was 32.4 µM (inactive). Also, in experiment [19], the GI50 was 36.6 µM (inactive).
Turning to `CC1OC(=O)C(C(C)C)NC(=O)C(C(C)C)OC(=O)C(C(C)C)NC(=O)C(C)OC(=O)C(C(C)C)NC(=O)C(C(C)C)OC(=O)C(C(C)C)NC(=O)C(C)OC(=O)C(C(C)C)NC(=O)C(C(C)C)OC(=O)C(C(C)C)NC1=O` (configuration not stated), the GI50 in [1] is 0.00728 µM (active); in experiment [2], < 0.0001 µM (active); in experiment [20], < 0.0001 µM (active); in experiment [4], 0.00301 µM (active); in experiment [5], < 0.0001 µM (active); in experiment [7] it was < 0.0001 µM (active). The GI50 in experiment [8] was 0.00314 µM (active); in [9] it was 0.0032 µM (active); in experiment [11] it was 0.0198 µM (active); in [12] it was 0.0025 µM (active); in experiment [13], 0.00281 µM (active); in experiment [14] it was 0.0025 µM (active). Moreover, the GI50 in experiment [15] is 0.00538 µM (active); in experiment [16] it was 0.00273 µM (active); in experiment [17], < 0.0001 µM (active); in [19] it was < 0.0001 µM (active).
Take `Oc1ccc(Br)cc1/C=N/c1c(NC2CCCCC2)oc2ccc(Br)cc12`: the GI50 in [1] was 45.5 µM (inactive); in experiment [2], 61.5 µM (inactive); in experiment [20], 25.5 µM (inactive); in experiment [3], 54 µM (inactive); in experiment [4], 37.2 µM (inactive); in [5] it was 40.6 µM (inactive). The GI50 in experiment [6] was 47.4 µM (inactive); in experiment [8], 33.2 µM (inactive); in experiment [9], 4.1 µM (inactive); in experiment [11], 45.1 µM (inactive); in [12], 68.4 µM (inactive); in experiment [13] it was 31 µM (inactive). Also, the GI50 is 16.2 µM (inactive) in experiment [14]; 18.3 µM (inactive) in experiment [15]; 44.4 µM (inactive) in [16]; 45.9 µM (inactive) in [17]; 38 µM (inactive) in [18]; 35.5 µM (inactive) in experiment [19].
On to `O=C(NCCCCNCCCNC(=O)OCc1ccccc1)OCc1ccccc1`, for which the GI50 in experiment [1] is 36.4 µM (inactive); in [20] it was 55 µM (inactive); in experiment [3], 64.4 µM (inactive); in experiment [4], 25.5 µM (inactive); in experiment [5] it was 43.7 µM (inactive); in experiment [6], 21.8 µM (inactive). In addition, the GI50 in experiment [7] is 18.3 µM (inactive); in experiment [8], 69.5 µM (inactive); in experiment [9], 31 µM (inactive); in [10], 31.8 µM (inactive); in experiment [11] it was 51.6 µM (inactive); in [12], 27.8 µM (inactive). Further, the GI50 in experiment [13] is 24.2 µM (inactive); in experiment [14], 24.5 µM (inactive); in [16], 85.3 µM (inactive); in experiment [17] it was 23.9 µM (inactive); in [18] it was 80.2 µM (inactive); in experiment [19], 33.4 µM (inactive).
As for `CNC(=O)N(CCC#N)CCCN(C(=O)NC)c1ccccc1`, the GI50 in experiment [1] is > 100 µM (inactive); in [2], > 100 µM (inactive); in experiment [20], > 100 µM (inactive); in experiment [3] it was > 100 µM (inactive); in [4], 72.6 µM (inactive); in experiment [5] it was > 100 µM (inactive). Also, the GI50 in experiment [6], in experiment [7], in experiment [9], in experiment [11], in experiment [12] and in [13] was > 100 µM (inactive) in each case. The GI50 in experiment [14], in [15], in experiment [16], in [17], in [18] and in experiment [19] was > 100 µM (inactive) each time.
Turning to `Fc1ccc(F)c(/C=N/C23CC4CC(CC(C4)C2)C3)c1`, the GI50 in experiment [1], in [20], in experiment [3], in experiment [4], in experiment [5] and in experiment [6] was > 10 µM (inactive) throughout. The GI50 in experiment [7] was > 10 µM (inactive); in experiment [8], > 10 µM (inactive); in experiment [9] it was 5.13 µM (inactive); in experiment [10] it was > 10 µM (inactive); in experiment [11], > 10 µM (inactive); in experiment [12], > 10 µM (inactive). In addition, the GI50 in [13], in experiment [14], in experiment [15], in experiment [16], in [17] and in experiment [18] was > 10 µM (inactive) in each case.
Turning to `COc1ccc(C(O)CC(O)(C(F)(F)F)C(F)(F)F)cc1` (configuration not stated), the GI50 is 19.4 µM (inactive) in [1]; 20 µM (inactive) in experiment [2]; 21.5 µM (inactive) in [3]; 1.7 µM (inactive) in [4]; 44.7 µM (inactive) in experiment [5]; 29.6 µM (inactive) in experiment [6]. For the same molecule, the GI50 is 32.8 µM (inactive) in [7]; 39.9 µM (inactive) in experiment [8]; 20.8 µM (inactive) in experiment [9]; 16.3 µM (inactive) in experiment [10]; 31.3 µM (inactive) in experiment [11]; 26.4 µM (inactive) in experiment [12]. Besides, the GI50 in experiment [13] was 39.8 µM (inactive); in experiment [14], 61.4 µM (inactive); in [15], 18.2 µM (inactive); in experiment [16] it was 24.8 µM (inactive); in experiment [17], 22.9 µM (inactive); in experiment [18] it was 32.6 µM (inactive). In experiment [19], the GI50 is 31.9 µM (inactive).
Take `CC1(CCC(=O)OC2CCCCC2)OCCO1`: the GI50 in [1], in experiment [2], in experiment [3], in [4], in experiment [5] and in experiment [6] was > 100 µM (inactive) each time. The GI50 in experiment [7], in experiment [8], in experiment [9], in experiment [10], in experiment [11] and in experiment [12] was > 100 µM (inactive) in each case. Besides, the GI50 in [13], in experiment [14], in experiment [15], in experiment [16], in [17] and in [18] was > 100 µM (inactive) throughout. Also, the GI50 in experiment [19] is > 100 µM (inactive).
As to `CC(C)Oc1ccc(CNC2=NCCO2)c2ccccc12`, the GI50 in experiment [1] is 12.3 µM (inactive); in experiment [2] it was 14.5 µM (inactive); in [3], 15.4 µM (inactive); in experiment [4], 18.2 µM (inactive); in experiment [5] it was 16.3 µM (inactive); in [6] it was 13.7 µM (inactive). Further, the GI50 in [7] was 11.4 µM (inactive); in experiment [8], 22.3 µM (inactive); in experiment [9] it was 13.3 µM (inactive); in experiment [10] it was 10.3 µM (inactive); in [11], 15.1 µM (inactive); in experiment [12] it was 15.6 µM (inactive). The GI50 in experiment [13] was 5.24 µM (inactive); in experiment [14], 14.1 µM (inactive); in [16], 17.3 µM (inactive); in experiment [17] it was 7.85 µM (inactive); in experiment [18], 13.9 µM (inactive); in [19] it was 10.9 µM (inactive).
Regarding `CC(=O)/C(=C\n1c(=S)[nH]c2ccc([N+](=O)[O-])cc21)C(=O)Nc1ccccc1C`, the GI50 was > 100 µM (inactive) in experiment [1]; > 100 µM (inactive) in experiment [2]; 33.3 µM (inactive) in [20]; > 100 µM (inactive) in experiment [3]; > 100 µM (inactive) in experiment [6]; > 100 µM (inactive) in experiment [7]. The GI50 in experiment [9], in experiment [11], in [12], in experiment [14], in experiment [15] and in experiment [16] was > 100 µM (inactive) throughout. The values for the GI50 in experiment [17], in experiment [18] and in experiment [19] were 88.5 µM (inactive), > 100 µM (inactive) and > 100 µM (inactive), respectively.
